Measurements taken from the kinase profiling compilation of Christmann-Franck et al. (2016).

Key:
Assay in all cases: radiometric filter-binding kinase assay, Kinase HotSpot
Conditions in all cases: compound 0.5 µM; ATP 10 µM
PRKACA (human) = PRKACA (human) (UniProt P17612)
PIM3 (human) = PIM3 (human) (UniProt Q86V86)
DAPK3 (human) = DAPK3 (human) (UniProt O43293)
RPS6KA5 KD2 (human) = RPS6KA5 KD2 (human) (UniProt O75582)
GSK3A (human) = GSK3A (human) (UniProt P49840)
RAF1 (human) = RAF1 (human) (UniProt P04049)
ERBB4 (human) = ERBB4 (human) (UniProt Q15303)
RPS6KA6 KD1 KD2 (human) = RPS6KA6 KD1 KD2 (human) (UniProt Q9UK32)
CSNK1E (human) = CSNK1E (human) (UniProt P49674)
ROS1 (human) = ROS1 (human) (UniProt P08922)
AURKC (human) = AURKC (human) (UniProt Q9UQB9)
ADRBK1 (human) = ADRBK1 (human) (UniProt P25098)
AURKA (human) = AURKA (human) (UniProt O14965)
RPS6KB2 (human) = RPS6KB2 (human) (UniProt Q9UBS0)
CLK4 (human) = CLK4 (human) (UniProt Q9HAZ1)
BRSK1 (human) = BRSK1 (human) (UniProt Q8TDC3)
EPHA1 (human) = EPHA1 (human) (UniProt P21709)
TGFBR1 (human) = TGFBR1 (human) (UniProt P36897)
FGFR1 (human) = FGFR1 (human) (UniProt P11362)
MYLK2 (human) = MYLK2 (human) (UniProt Q9H1R3)
TEC (human) = TEC (human) (UniProt P42680)
CDK5 CDK5R1 p25 (human) = CDK5 CDK5R1 p25 (human) (UniProt Q00535+Q15078)
DYRK4 (human) = DYRK4 (human) (UniProt Q9NR20)
PTK2 (human) = PTK2 (human) (UniProt Q05397)
MYLK (human) = MYLK (human) (UniProt Q15746)
CAMK2G (human) = CAMK2G (human) (UniProt Q13555)
CSNK1A1 (human) = CSNK1A1 (human) (UniProt P48729)
DMPK (human) = DMPK (human) (UniProt Q09013)
CSNK1G3 (human) = CSNK1G3 (human) (UniProt Q9Y6M4)
ACVR1 (human) = ACVR1 (human) (UniProt Q04771)
MAP3K8 (human) = MAP3K8 (human) (UniProt P41279)
SRPK1 (human) = SRPK1 (human) (UniProt Q96SB4)
RIPK2 (human) = RIPK2 (human) (UniProt O43353)
FGFR4 (human) = FGFR4 (human) (UniProt P22455)
YES1 (human) = YES1 (human) (UniProt P07947)
NUAK1 (human) = NUAK1 (human) (UniProt O60285)
ULK1 (human) = ULK1 (human) (UniProt O75385)
MAP3K3 (human) = MAP3K3 (human) (UniProt Q99759)
PAK3 (human) = PAK3 (human) (UniProt O75914)
MKNK2 (human) = MKNK2 (human) (UniProt Q9HBH9)
CDK2 CCNA2 (human) = CDK2 CCNA2 (human) (UniProt P24941+P20248)
CDC42BPB (human) = CDC42BPB (human) (UniProt Q9Y5S2)

Sequence of CAMK2G (human) (Q13555 whole entry, looked up): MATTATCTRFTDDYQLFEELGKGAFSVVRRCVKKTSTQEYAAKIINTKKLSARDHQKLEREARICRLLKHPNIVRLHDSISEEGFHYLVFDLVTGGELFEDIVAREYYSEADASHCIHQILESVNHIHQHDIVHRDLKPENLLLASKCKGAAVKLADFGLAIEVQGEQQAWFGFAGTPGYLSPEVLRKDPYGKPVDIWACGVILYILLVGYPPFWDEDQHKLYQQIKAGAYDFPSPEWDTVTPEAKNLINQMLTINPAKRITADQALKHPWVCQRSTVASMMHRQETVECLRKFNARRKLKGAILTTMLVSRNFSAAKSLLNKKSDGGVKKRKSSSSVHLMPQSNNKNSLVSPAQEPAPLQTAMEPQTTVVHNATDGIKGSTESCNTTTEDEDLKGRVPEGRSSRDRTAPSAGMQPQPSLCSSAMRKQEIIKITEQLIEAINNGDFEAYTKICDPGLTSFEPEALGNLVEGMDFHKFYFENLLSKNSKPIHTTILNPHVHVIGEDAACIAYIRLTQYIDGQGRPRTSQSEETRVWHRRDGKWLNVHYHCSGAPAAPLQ
Sequence of CSNK1A1 (human) (P48729 whole entry, looked up): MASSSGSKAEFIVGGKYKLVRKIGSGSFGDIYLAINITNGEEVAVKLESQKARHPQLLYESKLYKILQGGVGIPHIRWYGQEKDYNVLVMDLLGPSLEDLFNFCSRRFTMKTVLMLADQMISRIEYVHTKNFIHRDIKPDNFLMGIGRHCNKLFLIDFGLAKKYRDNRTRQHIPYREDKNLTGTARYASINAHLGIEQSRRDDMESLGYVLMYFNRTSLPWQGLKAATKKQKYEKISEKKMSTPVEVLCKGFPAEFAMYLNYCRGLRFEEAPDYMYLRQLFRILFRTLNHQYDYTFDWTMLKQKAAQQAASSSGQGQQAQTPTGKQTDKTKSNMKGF
Sequence of ULK1 (human) (O75385 whole entry, looked up): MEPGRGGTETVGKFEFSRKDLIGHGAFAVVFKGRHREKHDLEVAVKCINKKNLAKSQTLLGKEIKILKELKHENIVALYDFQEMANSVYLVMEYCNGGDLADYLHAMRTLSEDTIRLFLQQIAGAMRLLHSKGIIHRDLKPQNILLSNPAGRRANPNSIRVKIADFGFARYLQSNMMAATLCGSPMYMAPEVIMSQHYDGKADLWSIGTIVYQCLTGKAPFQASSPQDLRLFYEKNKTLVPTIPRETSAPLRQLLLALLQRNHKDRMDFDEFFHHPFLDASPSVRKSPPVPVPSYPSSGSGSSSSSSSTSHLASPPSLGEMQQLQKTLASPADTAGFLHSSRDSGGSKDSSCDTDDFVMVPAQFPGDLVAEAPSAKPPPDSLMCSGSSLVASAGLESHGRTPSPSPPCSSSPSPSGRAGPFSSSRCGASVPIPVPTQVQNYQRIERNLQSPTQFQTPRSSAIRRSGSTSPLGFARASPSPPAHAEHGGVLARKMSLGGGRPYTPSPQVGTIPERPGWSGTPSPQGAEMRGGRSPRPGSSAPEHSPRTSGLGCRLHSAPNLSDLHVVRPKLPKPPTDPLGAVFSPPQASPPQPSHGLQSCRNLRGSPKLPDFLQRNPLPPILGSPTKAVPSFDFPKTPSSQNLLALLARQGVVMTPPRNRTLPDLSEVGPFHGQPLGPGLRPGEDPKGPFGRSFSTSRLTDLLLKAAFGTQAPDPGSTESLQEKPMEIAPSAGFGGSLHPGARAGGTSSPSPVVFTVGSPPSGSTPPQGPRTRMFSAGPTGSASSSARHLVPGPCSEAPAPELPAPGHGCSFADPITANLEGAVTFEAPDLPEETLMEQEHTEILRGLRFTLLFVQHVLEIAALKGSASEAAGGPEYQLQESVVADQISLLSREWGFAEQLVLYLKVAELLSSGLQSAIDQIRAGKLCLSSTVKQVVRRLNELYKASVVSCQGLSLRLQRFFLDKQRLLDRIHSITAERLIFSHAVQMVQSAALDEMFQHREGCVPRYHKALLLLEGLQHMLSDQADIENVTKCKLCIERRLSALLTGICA
Sequence of ROS1 (human) (P08922 whole entry, looked up): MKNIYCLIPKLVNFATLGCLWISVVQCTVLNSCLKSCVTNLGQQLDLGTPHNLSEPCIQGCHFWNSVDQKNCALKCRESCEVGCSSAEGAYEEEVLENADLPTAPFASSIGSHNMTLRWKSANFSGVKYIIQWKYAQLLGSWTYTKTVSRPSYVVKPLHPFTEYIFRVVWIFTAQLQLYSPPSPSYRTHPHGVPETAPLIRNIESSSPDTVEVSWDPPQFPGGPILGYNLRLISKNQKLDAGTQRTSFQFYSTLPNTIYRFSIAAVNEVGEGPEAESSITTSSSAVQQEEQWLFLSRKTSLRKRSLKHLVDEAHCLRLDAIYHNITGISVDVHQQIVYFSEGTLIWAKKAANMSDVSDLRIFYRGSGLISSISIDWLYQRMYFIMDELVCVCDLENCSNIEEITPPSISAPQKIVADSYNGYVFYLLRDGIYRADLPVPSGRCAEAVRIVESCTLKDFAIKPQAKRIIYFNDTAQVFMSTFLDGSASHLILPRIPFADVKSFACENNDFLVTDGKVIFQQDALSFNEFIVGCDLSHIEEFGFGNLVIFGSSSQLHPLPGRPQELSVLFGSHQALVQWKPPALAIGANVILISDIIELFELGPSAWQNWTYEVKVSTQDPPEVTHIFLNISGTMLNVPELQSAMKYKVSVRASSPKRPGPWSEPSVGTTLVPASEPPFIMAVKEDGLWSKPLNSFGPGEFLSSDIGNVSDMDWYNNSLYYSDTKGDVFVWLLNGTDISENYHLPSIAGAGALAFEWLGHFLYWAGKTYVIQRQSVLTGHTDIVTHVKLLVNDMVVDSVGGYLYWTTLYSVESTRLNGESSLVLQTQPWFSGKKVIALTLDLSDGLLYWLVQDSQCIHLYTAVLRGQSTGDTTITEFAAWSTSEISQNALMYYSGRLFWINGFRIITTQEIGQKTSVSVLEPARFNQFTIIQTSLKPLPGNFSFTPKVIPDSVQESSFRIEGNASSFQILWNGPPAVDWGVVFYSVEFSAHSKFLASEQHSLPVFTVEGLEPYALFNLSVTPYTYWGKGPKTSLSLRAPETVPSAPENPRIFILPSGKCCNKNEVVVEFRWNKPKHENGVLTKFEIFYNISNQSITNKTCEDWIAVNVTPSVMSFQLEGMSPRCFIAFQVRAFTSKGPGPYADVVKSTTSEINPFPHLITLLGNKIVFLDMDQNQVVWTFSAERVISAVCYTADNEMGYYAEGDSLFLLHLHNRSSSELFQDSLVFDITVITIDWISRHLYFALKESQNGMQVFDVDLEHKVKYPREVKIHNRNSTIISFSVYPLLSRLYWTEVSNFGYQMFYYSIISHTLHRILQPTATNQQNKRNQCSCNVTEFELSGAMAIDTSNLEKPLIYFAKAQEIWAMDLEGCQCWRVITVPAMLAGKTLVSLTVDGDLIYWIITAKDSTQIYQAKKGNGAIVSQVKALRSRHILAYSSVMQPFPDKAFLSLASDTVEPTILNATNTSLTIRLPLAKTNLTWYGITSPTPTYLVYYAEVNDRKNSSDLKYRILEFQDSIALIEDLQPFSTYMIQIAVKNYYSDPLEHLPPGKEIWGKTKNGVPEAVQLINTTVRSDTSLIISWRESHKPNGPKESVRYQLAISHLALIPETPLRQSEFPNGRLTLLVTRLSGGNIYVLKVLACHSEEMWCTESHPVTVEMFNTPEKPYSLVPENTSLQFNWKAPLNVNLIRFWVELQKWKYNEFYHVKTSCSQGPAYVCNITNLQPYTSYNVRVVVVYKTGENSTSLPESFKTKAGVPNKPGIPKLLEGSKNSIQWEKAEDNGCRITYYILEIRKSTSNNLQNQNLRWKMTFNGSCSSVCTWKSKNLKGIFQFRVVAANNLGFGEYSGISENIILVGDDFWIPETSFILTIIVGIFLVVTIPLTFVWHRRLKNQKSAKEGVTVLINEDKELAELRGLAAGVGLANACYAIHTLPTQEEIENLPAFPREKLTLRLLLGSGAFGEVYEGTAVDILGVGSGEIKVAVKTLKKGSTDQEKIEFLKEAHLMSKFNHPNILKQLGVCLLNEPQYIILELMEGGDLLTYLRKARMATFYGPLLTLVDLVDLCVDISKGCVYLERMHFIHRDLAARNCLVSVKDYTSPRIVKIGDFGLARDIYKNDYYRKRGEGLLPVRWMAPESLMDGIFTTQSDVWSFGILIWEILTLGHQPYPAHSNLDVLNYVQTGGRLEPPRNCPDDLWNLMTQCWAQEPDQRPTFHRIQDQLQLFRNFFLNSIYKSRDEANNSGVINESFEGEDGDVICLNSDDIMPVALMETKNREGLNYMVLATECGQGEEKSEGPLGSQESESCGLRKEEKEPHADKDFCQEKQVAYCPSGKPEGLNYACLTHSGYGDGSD
Sequence of PAK3 (human) (O75914 whole entry, looked up): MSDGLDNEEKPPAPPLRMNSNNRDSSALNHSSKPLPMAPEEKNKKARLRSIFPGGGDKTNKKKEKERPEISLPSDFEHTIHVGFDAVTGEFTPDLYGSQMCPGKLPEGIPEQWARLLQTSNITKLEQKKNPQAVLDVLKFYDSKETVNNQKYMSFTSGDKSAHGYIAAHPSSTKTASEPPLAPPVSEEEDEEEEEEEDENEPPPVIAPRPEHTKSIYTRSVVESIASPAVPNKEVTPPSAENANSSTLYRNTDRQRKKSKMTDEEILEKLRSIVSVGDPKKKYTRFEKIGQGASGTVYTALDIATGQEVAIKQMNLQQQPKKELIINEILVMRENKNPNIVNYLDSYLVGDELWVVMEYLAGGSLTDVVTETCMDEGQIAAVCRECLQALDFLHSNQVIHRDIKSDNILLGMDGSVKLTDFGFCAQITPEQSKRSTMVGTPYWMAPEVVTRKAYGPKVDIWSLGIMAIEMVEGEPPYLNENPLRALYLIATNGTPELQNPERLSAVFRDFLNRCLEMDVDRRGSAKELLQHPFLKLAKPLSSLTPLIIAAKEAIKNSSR

**Q.** What does the source list for `COc1ccc2c(c1)c(C1=C(c3c[nH]c4ccccc34)C(=O)NC1=O)cn2CCCN(C)C`?
**A.** residual activity (PRKACA (human)): 77.9%; residual activity (PIM3 (human)): 5.01%; residual activity (DAPK3 (human)): 75.5%; residual activity (RPS6KA5 KD2 (human)): 61.3%; residual activity (GSK3A (human)): 14%; residual activity (RAF1 (human)): 99.3%; residual activity (ERBB4 (human)): 93.4%; residual activity (RPS6KA6 KD1 KD2 (human)): 4.52%; residual activity (CSNK1E (human)): 86.4%; residual activity (ROS1 (human)): 52.4%; residual activity (AURKC (human)): 90.4%; residual activity (ADRBK1 (human)): 99%; residual activity (AURKA (human)): 86.6%; residual activity (RPS6KB2 (human)): 65.4%; residual activity (CLK4 (human)): 32.8%; residual activity (BRSK1 (human)): 81.9%; residual activity (EPHA1 (human)): 76.2%; residual activity (TGFBR1 (human)): 101%; residual activity (FGFR1 (human)): 59%; residual activity (MYLK2 (human)): 96%; residual activity (TEC (human)): 97.9%; residual activity (CDK5 CDK5R1 p25 (human)): 114%; residual activity (DYRK4 (human)): 97.3%; residual activity (PTK2 (human)): 88.2%; residual activity (MYLK (human)): 66.9%; residual activity (CAMK2G (human)): 91.1%; residual activity (CSNK1A1 (human)): 62.3%; residual activity (DMPK (human)): 97.7%; residual activity (CSNK1G3 (human)): 77.8%; residual activity (ACVR1 (human)): 98%; residual activity (MAP3K8 (human)): 93.8%; residual activity (SRPK1 (human)): 116%; residual activity (RIPK2 (human)): 70.2%; residual activity (FGFR4 (human)): 79.2%; residual activity (YES1 (human)): 90.4%; residual activity (NUAK1 (human)): 32.2%; residual activity (ULK1 (human)): 99%; residual activity (MAP3K3 (human)): 82.8%; residual activity (PAK3 (human)): 105%; residual activity (MKNK2 (human)): 81.1%; residual activity (CDK2 CCNA2 (human)): 112%; residual activity (CDC42BPB (human)): 89.4%

**Q.** Which results are given for `CN(C)c1ccc(/C=C2\C(=O)Nc3ccccc32)cc1`?
**A.** residual activity (PRKACA (human)): 104%; residual activity (PIM3 (human)): 102%; residual activity (DAPK3 (human)): 101%; residual activity (RPS6KA5 KD2 (human)): 98.7%; residual activity (GSK3A (human)): 104%; residual activity (RAF1 (human)): 101%; residual activity (ERBB4 (human)): 97.7%; residual activity (RPS6KA6 KD1 KD2 (human)): 93.9%; residual activity (CSNK1E (human)): 57.2%; residual activity (ROS1 (human)): 94.9%; residual activity (AURKC (human)): 91.1%; residual activity (ADRBK1 (human)): 101%; residual activity (AURKA (human)): 104%; residual activity (RPS6KB2 (human)): 101%; residual activity (CLK4 (human)): 94.1%; residual activity (BRSK1 (human)): 99.6%; residual activity (EPHA1 (human)): 93.7%; residual activity (TGFBR1 (human)): 96.7%; residual activity (FGFR1 (human)): 92%; residual activity (MYLK2 (human)): 82.6%; residual activity (TEC (human)): 103%; residual activity (CDK5 CDK5R1 p25 (human)): 102%; residual activity (DYRK4 (human)): 94.8%; residual activity (PTK2 (human)): 104%; residual activity (MYLK (human)): 90.5%; residual activity (CAMK2G (human)): 99.6%; residual activity (CSNK1A1 (human)): 105%; residual activity (DMPK (human)): 105%; residual activity (CSNK1G3 (human)): 101%; residual activity (ACVR1 (human)): 104%; residual activity (MAP3K8 (human)): 99.6%; residual activity (SRPK1 (human)): 95.4%; residual activity (RIPK2 (human)): 87.8%; residual activity (FGFR4 (human)): 97.4%; residual activity (YES1 (human)): 89.3%; residual activity (NUAK1 (human)): 80.4%; residual activity (ULK1 (human)): 91.9%; residual activity (MAP3K3 (human)): 104%; residual activity (PAK3 (human)): 99%; residual activity (MKNK2 (human)): 90.5%; residual activity (CDK2 CCNA2 (human)): 102%; residual activity (CDC42BPB (human)): 89.5%

**Q.** What does the source list for `COc1cc2ncnc(Nc3ccc(Oc4ccccc4)cc3)c2cc1OC`?
**A.** residual activity (PRKACA (human)): 102%; residual activity (PIM3 (human)): 96.9%; residual activity (DAPK3 (human)): 96.9%; residual activity (RPS6KA5 KD2 (human)): 106%; residual activity (GSK3A (human)): 97%; residual activity (RAF1 (human)): 88.9%; residual activity (ERBB4 (human)): 8.79%; residual activity (RPS6KA6 KD1 KD2 (human)): 111%; residual activity (CSNK1E (human)): 100%; residual activity (ROS1 (human)): 95.3%; residual activity (AURKC (human)): 93.9%; residual activity (ADRBK1 (human)): 101%; residual activity (AURKA (human)): 79.2%; residual activity (RPS6KB2 (human)): 97.4%; residual activity (CLK4 (human)): 122%; residual activity (BRSK1 (human)): 98.7%; residual activity (EPHA1 (human)): 95.6%; residual activity (TGFBR1 (human)): 97.1%; residual activity (FGFR1 (human)): 85%; residual activity (MYLK2 (human)): 101%; residual activity (TEC (human)): 43.3%; residual activity (CDK5 CDK5R1 p25 (human)): 88.8%; residual activity (DYRK4 (human)): 97.3%; residual activity (PTK2 (human)): 98.1%; residual activity (MYLK (human)): 105%; residual activity (CAMK2G (human)): 94%; residual activity (CSNK1A1 (human)): 98.2%; residual activity (DMPK (human)): 106%; residual activity (CSNK1G3 (human)): 99.4%; residual activity (ACVR1 (human)): 93.7%; residual activity (MAP3K8 (human)): 68.9%; residual activity (SRPK1 (human)): 105%; residual activity (RIPK2 (human)): 55.5%; residual activity (FGFR4 (human)): 77.8%; residual activity (YES1 (human)): 7.96%; residual activity (NUAK1 (human)): 105%; residual activity (ULK1 (human)): 89.5%; residual activity (MAP3K3 (human)): 94.5%; residual activity (PAK3 (human)): 98.1%; residual activity (MKNK2 (human)): 47.9%; residual activity (CDK2 CCNA2 (human)): 100%; residual activity (CDC42BPB (human)): 106%

**Q.** What does the source list for `O=C1Nc2ccc(Br)cc2/C1=C\c1cc2c([nH]1)CCCC2`?
**A.** residual activity (PRKACA (human)): 96.5%; residual activity (PIM3 (human)): 87.5%; residual activity (DAPK3 (human)): 92.8%; residual activity (RPS6KA5 KD2 (human)): 90.3%; residual activity (GSK3A (human)): 88.5%; residual activity (RAF1 (human)): 88.2%; residual activity (ERBB4 (human)): 84.6%; residual activity (RPS6KA6 KD1 KD2 (human)): 78.6%; residual activity (CSNK1E (human)): 84.3%; residual activity (ROS1 (human)): 98.6%; residual activity (AURKC (human)): 86.3%; residual activity (ADRBK1 (human)): 105%; residual activity (AURKA (human)): 87.5%; residual activity (RPS6KB2 (human)): 102%; residual activity (CLK4 (human)): 84.5%; residual activity (BRSK1 (human)): 80.8%; residual activity (EPHA1 (human)): 93.1%; residual activity (TGFBR1 (human)): 100%; residual activity (FGFR1 (human)): 76.7%; residual activity (MYLK2 (human)): 78.2%; residual activity (TEC (human)): 129%; residual activity (CDK5 CDK5R1 p25 (human)): 91.3%; residual activity (DYRK4 (human)): 102%; residual activity (PTK2 (human)): 81.9%; residual activity (MYLK (human)): 95.7%; residual activity (CAMK2G (human)): 92.4%; residual activity (CSNK1A1 (human)): 100%; residual activity (DMPK (human)): 101%; residual activity (CSNK1G3 (human)): 103%; residual activity (ACVR1 (human)): 97%; residual activity (MAP3K8 (human)): 105%; residual activity (SRPK1 (human)): 98.3%; residual activity (RIPK2 (human)): 87.2%; residual activity (FGFR4 (human)): 77%; residual activity (YES1 (human)): 67.2%; residual activity (NUAK1 (human)): 27.7%; residual activity (ULK1 (human)): 69.4%; residual activity (MAP3K3 (human)): 88.6%; residual activity (PAK3 (human)): 96.4%; residual activity (MKNK2 (human)): 87.1%; residual activity (CDK2 CCNA2 (human)): 90.8%; residual activity (CDC42BPB (human)): 114%
